This assay deals with human mammary cancer-derived KPL-4 cells. Put plainly: Cell growth inhibition test with KPL-4 cells (WST-1). The format is cell-based. The following applies: KPL4, 72 hours, read-out: 50% growth inhibition concentration (GI50). How it is done:
In a 96-well plate (Nunc), human mammary cancer-derived KPL-4 cells were sown in an amount of 2000 cells/well, and pre-incubated in 10% fetal calf serum (FCS)-containing Dulbecco Modified Eagle Medium (DMEM) (incubation medium) in a 5% carbon dioxide incubator at 37° C. for 24 hours. A dimethylsulfoxide (DMSO) solution of a test compound controlled at 10 mmol/L was stepwise diluted with the incubation medium, and added to each well in a total amount of 100 μL/well, and incubated in the 5% carbon dioxide incubator at 37° C. for 72 hours. After the incubation, WST-1 {4-[3-(4-Iodophenyl)-2-(4-nitrophenyl)-2H-5-tetrazolio]-1,3-benzene disulfonate}-labeled mixture (Rosh Diagnostic) diluted 2-fold with the incubation medium was added thereto in an amount of 20 μL/well, and incubated in the 5% carbon dioxide incubator at 37° C. for 1 hour. Using a microplate spectrophotometer (Biorad's Model 550), the absorbance at 450 nm and 655 nm of each well was measured. The cell growth inhibition activity of the test compound was indicated by the 50% growth inhibition concentration (GI50) thereof. A method of calculating GI50 is described. The absorbance at 655 nm of each well was subtracted from the absorbance at 450 nm thereof to give a value (absorbance difference). The absorbance difference obtained with the cells without being treated with the test compound was taken as 100%, and this was compared with the absorbance difference obtained with the cells treated with the test compound to give the concentration of the compound for 50% cell growth inhibition, and this is referred to as GI50.
A general note: Tetrazolium dyes change colour on reduction, which living cells bring about.

Regarding `O=C(Cc1c(Br)c(O)cc(O)c1-c1ccccc1)NCc1ccncc1` [Compound 54, 2-(2-Bromo-3,5-dihydroxy-6-phenylphenyl)-N-(pyridin-4-ylmethyl)acetamide], the GI50 is not above 50 µM.
For the compound `COCCNCc1c(Br)c(O)cc(O)c1-c1ccccc1` [Compound 103, 6-Bromo-5-[N-(2-methoxyethyl)aminomethyl]-4-phenylbenzene-1,3-diol], the GI50 is not above 50 µM.
`CCc1c(O)cc(O)c(-c2ccccc2)c1CCOC1OC(CO)C(O)C(O)C1O` (stereo not drawn) [Compound 183, 6-Ethyl-4-phenyl-5-{2-[3,4,5-trihydroxy-6-(hydroxymethyl)tetrahydropyran-2-yloxy]ethyl}benzene-1,3-diol]: the GI50 is not above 50 µM.
Regarding `CCOc1cccc(-c2c(O)cc(O)c(CC)c2CCOC)c1` [Compound 133, 4-(3-Ethoxyphenyl)-6-ethyl-5-(2-methoxyethyl)benzene-1,3-diol], the GI50 is not above 50 µM.
Next, `COCCOCCOCc1c(Br)c(O)cc(O)c1-c1ccccc1` [Compound 72, 6-Bromo-5-[2-(2-methoxyethoxy)ethoxymethyl]-4-phenylbenzene-1,3-diol]: not above 50 µM.
With `COc1ccccc1N1CCN(C(=O)Cc2c(Br)c(O)cc(O)c2-c2ccccc2)CC1` [Compound 88, 2-(2-Bromo-3,5-dihydroxy-6-phenylphenyl)-1-[4-(2-methoxyphenyl)piperazin-1-yl]ethanone], the GI50 was not above 50 µM.
In the case of `COC(=O)Cc1cc(O)cc(O)c1-c1cccc(C=NO)c1` [Compound 3, Methyl 3,5-dihydroxy-2-[3-(hydroxyiminomethyl)phenyl]phenylacetate], the GI50 was not above 50 µM.
Take `CC(=O)C=Cc1c(Br)c(O)cc(O)c1-c1ccccc1` [Compound 60, 4-(2-Bromo-3,5-dihydroxy-6-phenylphenyl)but-3-en-2-one]: the GI50 was not above 50 µM.
Turning to `COC(=O)Cc1cc(O)cc(O)c1-c1ccccc1` [Compound 1, Methyl 3,5-dihydroxy-2-phenylphenylacetate], the GI50 was not above 50 µM.
On to `CCc1c(O)cc(O)c(-c2ncc(-c3ccccc3)o2)c1CC(=O)OC` [Compound 329, Methyl 2-ethyl-3,5-dihydroxy-6-(5-phenyl-1,3-oxazol-2-yl)phenylacetate], for which the GI50 is not above 50 µM.
On to `CN(C)CCc1c(Br)c(O)cc(O)c1-c1ccccc1` [Compound 99, 6-Bromo-5-[2-(N,N-dimethylamino)ethyl]-4-phenylbenzene-1,3-diol], for which the GI50 is not above 50 µM.
For the compound `COC(=O)Cc1cc(O)cc(O)c1-c1cccc(CO)c1` [Compound 76, Methyl 3,5-dihydroxy-2-[3-(hydroxymethyl)phenyl]phenylacetate], the GI50 was not above 50 µM.
Consider `CC(=O)CCc1c(Br)c(O)cc(O)c1-c1ccccc1` [Compound 114, 4-(2-Bromo-3,5-dihydroxy-6-phenylphenyl)butan-2-one], for which the GI50 was not above 50 µM.
As for `CCc1c(O)cc(O)c(-c2cccc(-c3ccccc3)c2)c1CCOC` [Compound 132, 6-Ethyl-5-(2-methoxyethyl)-4-(3-phenylphenyl)benzene-1,3-diol], the GI50 is not above 50 µM.
Regarding `CCc1c(O)cc(O)c(-c2cccc(OCc3ccncc3)c2)c1CCOCC(O)CO` (stereo not drawn) [Compound 192, 5-[2-(2,3-Dihydroxypropoxy)ethyl]-6-ethyl-4-[3-(pyridin-4-ylmethyloxy)phenyl]benzene-1,3-diol], the GI50 was not above 50 µM.
On to `CCc1c(O)cc(O)c(-c2cccc(OC)c2)c1CC(=O)N(C)CCOC` [Compound 150, 2-[2-Ethyl-3,5-dihydroxy-6-(3-methoxyphenyl)phenyl]-N-(2-methoxyethyl)-N-methylacetamide], for which the GI50 was not above 50 µM.
For the compound `OCCOCCc1c(Br)c(O)cc(O)c1-c1ccccc1` [Compound 110, 6-Bromo-5-[2-(2-hydroxyethoxy)ethyl]-4-phenylbenzene-1,3-diol], the GI50 is not above 50 µM.
In the case of `COC(=O)Cc1cc(O)cc(O)c1-c1ccc(Oc2ccccc2)cc1` [Compound 80, Methyl 3,5-dihydroxy-2-(4-phenoxyphenyl)phenylacetate], the GI50 was not above 50 µM.

The record behind these values is patent publication US7538241B2, “Hsp90 family protein inhibitors” (Kyowa Hakko Kogyo Co., Ltd., priority 2003, dated 2009).
